Assays:
PCP receptors = experiment: Radioreceptor assay, displacement of 3H-TCP from rat brain membranes; details: read-out: Ki apparent; units + SEM; 1 nM 3H-TCP, whole rat brain membranes, 1 hour incubation
rats = experiment: Behavioral assay, stereotyped behavior in rats; format: in vivo, Male Sprague-Dawley rats; details: for Stereotyped Behavior ED50: i.c.v., at time of maximal behavioral effect, parentheses: 95% confidence intervals
Protocol: Compound No. 1 was tested in comparison with PCP and TCP by an in vivo assay which determined stereotypic behavior in rats treated with the compounds. Male Sprague-Dawley rats weighing 200 to 250 g were used in the behavioral experiments. Each rat was used only once. Rats were anesthetized lightly with ether before a 20-gauge needle was used to make a hole in the rat's skull for i.c.v. injection of drugs at a later date. The rats were allowed to recover for at least 1 day before being used in the behavioral assays. On the day of the experiment, rats were placed individually into plastic rat cages and allowed at least 1 hr to acclimate before testing. Drugs were administered to rats in a random, single-blind fashion. Behavioral ratings were taken at 5-min intervals up to 1 hr after drug administration i.c.v. using the PCP rating scale as described by Sturgeon et al [Sturgeon, R. D., Fessler, R. G. and Meltzer, H. Y., "Behavioral Rating Scales for Accessing Phencyclidine-Induced Locomotor Activity, Stereotyped Behavior And Ataxia In Rats", European J. Pharmacol. 59 169, (1970)].
Dose-response curves for each treatment were determined at the time of maximal behavioral effect. Peak effects were found 5 min after i.c.v. administration of PCP (25-20000 nmol/rat). […] A rating of 5 in the PCP-rating scale was considered as complete stereotyped behavior, that is, a 100% response. At least 21 rats (at least seven rats/dose) were used to determine each dose-response curve and EDso values. ED50 values and dose-response curves were evaluated using a computerized Finney assay [Statistical Methods In Biological Assays, 2nd Edn., Hatner Pub. Co., New York (1964)].
The ability of the tested compounds to induce stereotyped behavior was assessed at 2.5, 5 and 10 minutes and thereafter every 5 min up to 1 hr after i.c.v., i.p., or s.c. administration.

hippocampal neurons [1] = experiment: Glutamate neurotoxicity assay (MTT neuronal survival); format: cell-based, Sprague-Dawley rats; details: for Protection from glutamate toxicity: 500 μM glutamate, 1 hour; for Optical Density (MTT, viable cells): units + SDM, 500 μM glutamate 1 hour, control 0.163, glutamate 0.092
Protocol: (§1) Compound No. 1 was tested for its ability to protect hippocampal neurons from hypoxia-induced cell death. Cultures of hippocampal neurons were prepared from embryonic day 17 Sprague-Dawley rats. The hippocampi were dissociated into a single cell suspension by incubation with 0.25% trypsin, 40 mg/ml DNase followed by gentle trituration through a Pasteur pipet. The cells were plated in a polylysine-coated 96-well plate and maintained in a chemically defined medium until use. The cells were grown for 2 to 3 weeks in 5% CO2 -in-air humidified environment at 36° C. to establish a thick network of neuronal processes with numerous spontaneously active synapses. Exposure to hypoxic/anoxic environment was accomplished by placing the cultures in an anaerobic chamber, and flushing it with a mixture of 95% N2 +5% CO2 gas to rapidly drop the O2 tension to near zero. The O2 tension was maintained at near zero using a disposable H2 +CO2 generator envelope with palladium catalyst. Compound No. 1 was added to the culture medium prior to incubation in the anaerobic chamber and maintained there for 6 hours. Following 2 hours of exposure to normal O2 tension, the cultures were processed for morphological and quantitive biochemical neuronal cell viability assays.
The neuronal survival assay utilized the compound MTT [(3-(4,5-dimethylthiazol-2-yl)-2,5-diphenyl tetrazolium bromide)], a pale yellow substrate that is cleaved by the mitochondrial enzyme succinate-dehydrogenase to yield a dark blue formazan product. This process requires active mitochondria, present only in live cells. Cultures of hippocampal neurons grown in 96-well plates were incubated with 1 mg/ml MTT at 36° C. in a 10% CO2 -in-air incubator for 30-60 min. At the end of the incubation, a dark blue precipitate outlined only viable cells. The precipitate was then solubilized using 0.08N HCl/isopropanol mixture and the absorbance measured with an ELISA plate reader (Dynatech MR600) using a test wavelength of 570 nm and a reference wavelength of 630 nm. The resulting optical density is directly proportional to the number of viable cells.
Compound No. 1 was tested for its ability to protect neurons from glutamate-induced neurotoxicity, which selectively kills mature neurons while sparing glial cells. Neuronal cells were prepared and cell viability assays were performed as described in the chronic hypoxia insult assay, above.
Hippocampal cultures were exposed to 500 μM glutamate for 1 hour either in the presence or absence of Compound No. 1 and immediately thereafter processed for qualitative (morphological) and quantitative viability assay.

hippocampal neurons [2] = experiment: Acute azide toxicity assay (MTT neuronal survival); format: cell-based, Sprague-Dawley rats
KA = experiment: NMDA/KA antagonist assay in embryo retina: blocking KA neurotoxicity; parameters: species or system chick embryo; details: KA 25 μM, 30 min, 37° C.; tested from 1000 μM downward
Protocol: (§2) A 15-day old chick embryo retina, incubated for 30 min. in a balanced salt solution (BSS) containing 1 mM Glu, developed a full lesion characteristic of an immature mouse retina following s.c. administration of Glu. Other excitotoxin agonists also produce acute lesions within 30 min., each agent being effective at a concentration proportional to its known excitatory and toxic potencies. The pattern of cellular degeneration is restricted in each case to the ganglion cell, inner plexiform and inner nuclear layers, but within these areas certain agonists induce different patterns of degeneration, the differences being most pronounced between NMA and KA. Four agonists were employed in the present test, each at a concentration established previously to be the lowest concentration required to consistently cause a fully-developed retinal lesion: KA (25 μM), Quis (50 μM), NMA (200 μM) and Glu (1000 μM). Compound No. 1 and other PCP-like compounds were tested at various concentrations for their ability to prevent KA, Quis, NMA or Glu neurotoxicity. […] Internal controls in each experiment consisted of at least six specimens being incubated with agonist alone. A typical toxic reaction had to be present in all controls and absent from all experimental specimens in order to qualify as a blocking effect. The method of tissue preparation was as follows: 15-day old chick embryos were decapitated and their eyes removed and cut into quadrants after excising the cornea and removing the lens, vitreous and iris. The retinal quadrants were then gently separated from the pigment epithelium and incubated for 30 min. at 37° C. in BSS to which an agonist or agonist plus antagonist was added. The BSS contained 140 mMNa^+, 5.0 mM K^+, 0.5 mM Ca^++, 4.5 mM Mg^++, 150 mM Cl^-, 5.6 mM glucose and bicarbonate/phosphate buffer (pH 7.3). […]

hippocampal neurons [3] = experiment: Chronic hypoxic insult assay (MTT neuronal survival); format: cell-based, Sprague-Dawley rats
Protocol: as §1, with “Exposure to hypoxic/anoxic environment was accomplished by placing the cultures in an anaerobic chamber, and flushing it with a mixture of 95% N2 +5% CO2 gas to rapidly drop the O2 tension to near zero. The O2 tension was maintained at near zero using a disposable H2 +CO2 generator envelope with palladium catalyst. Compound No. 1 was added to the culture medium prior to incubation in the anaerobic chamber and maintained there for 6 hours.” left out
The neuronal survival assay utilized the compound MTT [(3-(4,5-dimethylthiazol-2-yl)-2,5-diphenyl tetrazolium bromide)], a pale yellow substrate that is cleaved by the mitochondrial enzyme succinate-dehydrogenase to yield a dark blue formazan product. […] The precipitate was then solubilized using 0.08N HCl/isopropanol mixture and the absorbance measured with an ELISA plate reader (Dynatech MR600) using a test wavelength of 570 nm and a reference wavelength of 630 nm. […]

Quis = experiment: NMDA/KA antagonist assay in embryo retina: blocking Quis neurotoxicity; parameters: species or system chick embryo; details: Quis 50 μM, 30 min, 37° C.; footnote: @ up to 500 μM
Protocol: as §2

NMA = experiment: NMDA/KA antagonist assay in embryo retina: blocking NMA neurotoxicity; parameters: species or system chick embryo; details: NMA 200 μM, 30 min, 37° C.
Protocol: as §2

[4] = system: [^3 H]PCP binding sites, rat cerebral cortical membranes; details: Goldman et al, FEBS Lett., 170, 333-336 (1985); cited from earlier work
NMDA [5] = details: Berry et al, Eur. J. Pharm., 96, 261-267 (1983); spinal neurones; cited from earlier work
NMDA [6] = details: Anis et al, Br. J. Pharmacol., 79, 565 (1983); cited from earlier work

Compound	Ki (PCP receptors) [nM]	Stereotyped Behavior ED50 (rats)	Protection vs KA (KA)	Protection vs Quis (Quis)	Minimal concentration required to provide total protection vs NMA (NMA) [µM]	also measured
c1csc(C2(N3CCCCC3)CCCCC2)c1 [TCP]	20 ± 6	56 (49-76) nmol/rat				
C1=CCN(C2(c3cccs3)CCCCC2)CC1 [Compound No. 1, 1-[1-(2-thienyl)-cyclohexyl]-1,2,5,6-tetrahydropyridine]	12 ± 2	43 (34-57) nmol/rat	Partial @ 5 μM	Zero @ 250 μM	0.25	Protection from glutamate toxicity (hippocampal neurons [1]; 5 μM compound): significant protection; Protection from glutamate toxicity (hippocampal neurons [1]; 50 μM compound): Nearly complete protection; Optical Density (MTT, viable cells) (hippocampal neurons [1]; 5 μM compound): 0.147 ± .017; Optical Density (MTT, viable cells) (hippocampal neurons [1]; 50 μM compound): 0.157 ± .017; Protection of neurons from sodium azide poisoning (hippocampal neurons [2]; 1 μM compound, 10 μM sodium azide, 1 hour): significant protection; Optical Density (MTT, viable cells) (hippocampal neurons [2]; units + SDM, sodium azide 1 hour + 1 μM compound, control 0.146, sodium azide 0.084): 0.138 ± .013; EC (maximum protection) (hippocampal neurons [3]; Rattus norvegicus, Hippocampal neuron, hypoxia 6 hours, read-out: Concentration giving maximum protection of neurons from hypoxic insult): 50 µM; Optical Density (MTT, viable cells) (hippocampal neurons [3]; units + SDM, hypoxia + 50 μM compound, 6 hours, untreated control 0.163, hypoxia 0.062): 0.173 ± .033
CC1CCCN(C2(c3ccccc3)CCCCC2)C1 (single isomer, unassigned; (+)) [(+)-PCMP, (+)-1-(1-phenylcyclohexyl)-3-methylpiperidine]						Inhibition of specific binding of [^3 H]PCP [4]: potent inhibitor; Stereoselective effects over isomer counterpart in reducing the excitatory action of NMDA (NMDA [5]): confirmed
CNC1(c2ccccc2Cl)CCCCC1=O (stereo not drawn) [ketamine]						Reduction of the excitatory effects of NMDA as compared to KA and QUIS (NMDA [6]): reduce selectively the excitatory effects of NMDA
c1ccc(C2(N3CCCCC3)CCCCC2)cc1 [PCP, Phencyclidine]	96 ± 15	150 (120-180) nmol/rat	No Activity	No Activity	1	Time of peak behavioral effect (rats; after i.c.v. administration, 25-20000 nmol/rat): 5 min; Time of peak behavioral effect (rats; after i.p. administration, 2.0-32 mg/kg): 15 min; Reduction of the excitatory effects of NMDA as compared to KA and QUIS (NMDA [6]): reduce selectively the excitatory effects of NMDA
S=C=Nc1cccc(C2(N3CCCCC3)CCCCC2)c1 [Metaphit, 1-[1-(3-isothiocyanatophenyl)cyclohexyl]piperidine]			No Activity	No Activity	50	
CC1CCC(c2ccccc2)(N2CCCCC2)CC1 (stereo not drawn) [cis-N-(1-phenyl-4-methylcyclohexyl)piperidine]						Stereoselective effects over isomer counterpart in reducing the excitatory action of NMDA (NMDA [5]): confirmed

— patent US5604255A, “N-(1-thienylcycloalkyl)alkenylamines for treatment of neurotoxic injury” (priority 1994, dated 1997)
